Measured values from ChEMBL document CHEMBL2413072, “Synthesis and in vitro anticancer studies of novel C-2 arylidene congeners of lantadenes” (2013).

Columns and labels:
Type in all cases: functional
HCT-116 [1] = test: Growth inhibition of human HCT116 cells by sulforhodamine B assay
HOP-62 = test: Growth inhibition of human HOP62 cells by sulforhodamine B assay
HOP-92 = test: Growth inhibition of human HOP92 cells by sulforhodamine B assay
MDA-MB-435 = test: Growth inhibition of human MDA-MB-435 cells assessed as cell growth at 10^-8 M by sulforhodamine B assay; conditions: read-out: Activity
Malme-3M = test: Growth inhibition of human MALME-3M cells assessed as cell growth at 10^-8 M by sulforhodamine B assay; conditions: read-out: Activity
SW-620 = test: Growth inhibition of human SW620 cells assessed as cell growth at 10^-8 M by sulforhodamine B assay; conditions: read-out: Activity
HCT-15 = test: Growth inhibition of human HCT15 cells assessed as cell growth at 10^-8 M by sulforhodamine B assay; conditions: read-out: Activity
[2] = Growth inhibition of human HCC2998 cells assessed as cell growth at 10^-8 M by sulforhodamine B assay; conditions: HCC 2998, read-out: Activity
COLO 205 = test: Growth inhibition of human COLO205 cells assessed as cell growth at 10^-8 M by sulforhodamine B assay; conditions: read-out: Activity
NCI-H460 [3] = test: Growth inhibition of human NCI-H460 cells assessed as cell growth at 10^-8 M by sulforhodamine B assay; conditions: read-out: Activity
NCI-H322M = test: Growth inhibition of human NCI-H322M cells assessed as cell growth at 10^-8 M by sulforhodamine B assay; conditions: read-out: Activity
MOLT-4 = test: Growth inhibition of human MOLT4 cells assessed as cell growth at 10^-8 M by sulforhodamine B assay; conditions: read-out: Activity
[4] = Growth inhibition of human Hs 578T cells by sulforhodamine B assay
DU-145 = test: Growth inhibition of human DU145 cells by sulforhodamine B assay
SK-MEL-5 = test: Growth inhibition of human SK-MEL-5 cells by sulforhodamine B assay
U-251 = test: Growth inhibition of human U251 cells by sulforhodamine B assay
SF-295 = test: Growth inhibition of human SF295 cells by sulforhodamine B assay
PC-3 [5] = test: Growth inhibition of human PC3 cells assessed as cell growth at 10^-4 M by sulforhodamine B assay; conditions: read-out: Activity
SK-MEL-28 = test: Growth inhibition of human SK-MEL-28 cells assessed as cell growth at 10^-4 M by sulforhodamine B assay; conditions: read-out: Activity
LOX IMVI [6] = test: Growth inhibition of human LOXIMVI cells assessed as cell growth at 10^-4 M by sulforhodamine B assay; conditions: read-out: Activity
SN12C = test: Growth inhibition of human SN12C cells assessed as cell growth at 10^-6 M by sulforhodamine B assay; conditions: read-out: Activity
OVCAR-8 = test: Growth inhibition of human OVCAR8 cells assessed as cell growth at 10^-6 M by sulforhodamine B assay; conditions: read-out: Activity
SF-539 = test: Growth inhibition of human SF539 cells assessed as cell growth at 10^-6 M by sulforhodamine B assay; conditions: read-out: Activity
HCT-116 [7] = test: Growth inhibition of human HCT116 cells assessed as cell growth at 10^-6 M by sulforhodamine B assay; conditions: read-out: Activity
RPMI-8226 = test: Growth inhibition of human RPMI8226 cells assessed as cell growth at 10^-6 M by sulforhodamine B assay; conditions: read-out: Activity
K562 [8] = test: Growth inhibition of human K562 cells assessed as cell growth at 10^-6 M by sulforhodamine B assay; conditions: read-out: Activity
RXF 393 [9] = test: Growth inhibition of human RXF393 cells assessed as cell growth at 10^-7 M by sulforhodamine B assay; conditions: read-out: Activity
SK-OV-3 = test: Growth inhibition of human SKOV3 cells assessed as cell growth at 10^-7 M by sulforhodamine B assay; conditions: read-out: Activity
[10] = Growth inhibition of human NCI-ADR-RES cells assessed as cell growth at 10^-7 M by sulforhodamine B assay; conditions: read-out: Activity
LOX IMVI [11] = test: Growth inhibition of human LOXIMVI cells assessed as cell growth at 10^-7 M by sulforhodamine B assay; conditions: read-out: Activity
KM12 = test: Growth inhibition of human KM12 cells assessed as cell growth at 10^-7 M by sulforhodamine B assay; conditions: read-out: Activity
NCI-H460 [12] = test: Growth inhibition of human NCI-H460 cells assessed as cell growth at 10^-7 M by sulforhodamine B assay; conditions: read-out: Activity
NCI-H522 = test: Growth inhibition of human NCI-H522 cells assessed as cell growth at 10^-7 M by sulforhodamine B assay; conditions: read-out: Activity
K562 [13] = test: Growth inhibition of human K562 cells assessed as cell growth at 10^-7 M by sulforhodamine B assay; conditions: read-out: Activity
T47D = test: Growth inhibition of human T47D cells assessed as cell growth at 10^-8 M by sulforhodamine B assay; conditions: read-out: Activity
PC-3 [14] = test: Growth inhibition of human PC3 cells assessed as cell growth at 10^-8 M by sulforhodamine B assay; conditions: read-out: Activity
RXF 393 [15] = test: Growth inhibition of human RXF393 cells assessed as cell growth at 10^-8 M by sulforhodamine B assay; conditions: read-out: Activity
ACHN = test: Growth inhibition of human ACHN cells assessed as cell growth at 10^-8 M by sulforhodamine B assay; conditions: read-out: Activity
[16] = Growth inhibition of human NCI-ADR-RES cells assessed as cell growth at 10^-8 M by sulforhodamine B assay; conditions: read-out: Activity
[17] = read-out: LC50 (the source's name)
[18] = read-out: pLC50 (the source's name) (converted)

CC(C)=CC(=O)O[C@@H]1CC(C)(C)C[C@H]2C3=CC[C@@H]4[C@@]5(C)CCC(=O)C(C)(C)[C@@H]5CC[C@@]4(C)[C@]3(C)CC[C@@]12C(=O)O
GI50 (HCT-116 [1]; read-out: GI50): 2.35 µM
LC50 (HCT-116 [1]; read-out: LC50): > 100 µM
TGI (HCT-116 [1]; read-out: TGI): 53.5 µM
GI50 (HCT-116 [1]; read-out: pGI50 (converted)): 2.34 µM
LC50 (HCT-116 [1]; read-out: pLC50 (converted)): > 100 µM
TGI (HCT-116 [1]; read-out: pTGI (converted)): 53.7 µM
GI50 (HOP-62; read-out: GI50): 9.26 µM
LC50 (concentration killing 50% of cells) (HOP-62; read-out: LC50): > 100 µM
TGI (HOP-62; read-out: TGI): 49.8 µM
GI50 (HOP-62; read-out: pGI50 (converted)): 9.33 µM
LC50 (concentration killing 50% of cells) (HOP-62; read-out: pLC50 (converted)): > 100 µM
TGI (HOP-62; read-out: pTGI (converted)): 50.1 µM
GI50 (HOP-92; read-out: GI50): 1.7 µM
CC50 (HOP-92; [17]): > 100 µM
TGI (HOP-92; read-out: TGI): 7.02 µM
GI50 (HOP-92; read-out: pGI50 (converted)): 1.7 µM
CC50 (HOP-92; [18]): > 100 µM
TGI (HOP-92; read-out: pTGI (converted)): 7.08 µM
growth at 0.01 µM (MDA-MB-435): 99%
growth at 0.01 µM (Malme-3M): 94%
growth at 0.01 µM (SW-620): 100%
growth at 0.01 µM (HCT-15): 93%
growth at 0.01 µM [2]: 97%
growth at 0.01 µM (COLO 205): 106%
growth at 0.01 µM (NCI-H460 [3]): 105%
growth at 0.01 µM (NCI-H322M): 93%
growth at 0.01 µM (MOLT-4): 107%
GI50 ([4]; read-out: GI50): 4.16 µM
CC50 [4, 17]: > 100 µM
TGI ([4]; read-out: TGI): 53.6 µM
GI50 ([4]; read-out: pGI50 (converted)): 4.17 µM
CC50 [4, 18]: > 100 µM
TGI ([4]; read-out: pTGI (converted)): 53.7 µM
GI50 (DU-145; read-out: GI50): 5.12 µM
CC50 (DU-145; [17]): 98.3 µM
TGI (DU-145; read-out: TGI): 25.1 µM
GI50 (DU-145; read-out: pGI50 (converted)): 5.13 µM
CC50 (DU-145; [18]): 97.7 µM
TGI (DU-145; read-out: pTGI (converted)): 25.1 µM
GI50 (SK-MEL-5; read-out: GI50): 1.5 µM
CC50 (SK-MEL-5; [17]): 46.2 µM
TGI (SK-MEL-5; read-out: TGI): 11.7 µM
GI50 (SK-MEL-5; read-out: pGI50 (converted)): 1.51 µM
CC50 (SK-MEL-5; [18]): 45.7 µM
TGI (SK-MEL-5; read-out: pTGI (converted)): 11.7 µM
GI50 (U-251; read-out: GI50): 2.9 µM
CC50 (U-251; [17]): > 100 µM
TGI (U-251; read-out: TGI): 20.7 µM
GI50 (U-251; read-out: pGI50 (converted)): 2.88 µM
CC50 (U-251; [18]): > 100 µM
TGI (U-251; read-out: pTGI (converted)): 20.9 µM
GI50 (SF-295; read-out: GI50): 1.7 µM
CC50 (SF-295; [17]): 72.7 µM
TGI (SF-295; read-out: TGI): 11.9 µM
GI50 (SF-295; read-out: pGI50 (converted)): 1.7 µM
CC50 (SF-295; [18]): 72.4 µM
TGI (SF-295; read-out: pTGI (converted)): 12 µM
growth at 100 µM (PC-3 [5]): -1%
growth at 100 µM (SK-MEL-28): 6%
growth at 100 µM (LOX IMVI [6]): -47%
growth at 1 µM (SN12C): 80%
growth at 1 µM (OVCAR-8): 79%
growth at 1 µM (SF-539): 90%
growth at 1 µM (HCT-116 [7]): 70%
growth at 1 µM (RPMI-8226): 58%
growth at 1 µM (K562 [8]): 75%
growth at 0.1 µM (RXF 393 [9]): 94%
growth at 0.1 µM (SK-OV-3): 106%
growth at 0.1 µM [10]: 95%
growth at 0.1 µM (LOX IMVI [11]): 92%
growth at 0.1 µM (KM12): 85%
growth at 0.1 µM (NCI-H460 [12]): 101%
growth at 0.1 µM (NCI-H522): 92%
growth at 0.1 µM (K562 [13]): 95%
growth at 0.01 µM (T47D): 103%
growth at 0.01 µM (PC-3 [14]): 96%
growth at 0.01 µM (RXF 393 [15]): 97%
growth at 0.01 µM (ACHN): 97%
growth at 0.01 µM [16]: 103%
